Data: paper PMC12655637, “Design, Synthesis, and Mechanistic Study of Novel Ciprofloxacin/Thiazole Chalcone Hybrids as Potential Anticancer Agents” (Pharmaceuticals, 2025)

Assays:
Test in all cases: NCI-60 screening, one-dose (10 µM) and five-dose, SRB
MDA-MB231/ATCC = assay type: cell-based; conditions: five-dose; MDA-MB-231/ATCC
LOX IMVI = assay type: cell-based, human
SF-539 = assay type: cell-based, human
SNB-75 = assay type: cell-based, human
SF-268 = assay type: cell-based, human
HS 578T = assay type: cell-based, human
OVCAR-5 = assay type: cell-based, human; conditions: five-dose, OVCAR-5
COLO 205 = assay type: cell-based, human
HCC-2998 = assay type: cell-based, human
MDA-MB-435 = assay type: cell-based; conditions: MDA-MB-435
OVCAR-4 = assay type: cell-based, human
NCI-H522 = assay type: cell-based, human
OVCAR-3 = assay type: cell-based
KM12 = assay type: cell-based, human; conditions: five-dose, KM12
SF-295 = assay type: cell-based, human
CCRF-CEM = assay type: cell-based, human
[1] = Homo sapiens, five-dose, read-out: LC50 (the source's name)
[2] = Homo sapiens, five-dose, SF-539
[3] = Homo sapiens, five-dose, SNB-75
[4] = Homo sapiens, five-dose, SF-268
[5] = Homo sapiens, five-dose, COLO 205
[6] = Homo sapiens, five-dose, HCC-2998
[7] = Homo sapiens, five-dose, OVCAR-4
[8] = Homo sapiens, five-dose, NCI-H522
[9] = Homo sapiens, five-dose, OVCAR-3
[10] = Homo sapiens, five-dose, SF-295

Q: How did the TGI (MDA-MB231/ATCC) turn out when `Cc1nc(SCC(=O)N2CCN(c3cc4c(cc3F)c(=O)c(C(=O)O)cn4C3CC3)CC2)sc1C(=O)/C=C/c1cccc(Cl)c1` [Compound 4b, (E)-7-(4-(2-((5-(3-(3-Chlorophenyl)acryloyl)-4-methylthiazol-2-yl)thio)acetyl)piperazin-1-yl)-1-cyclopropyl-6-fluoro-4-oxo-1,4-dihydroquinoline-3-carboxylic Acid] was run?
A: The TGI was 100.0 µM.

Q: What about the activity at 10 µM (LOX IMVI; Homo sapiens, 10 μM, Melanoma, read-out: Growth percentage) of the same compound?
A: The activity at 10 µM was 36.9%.

Q: And the GI50 (LOX IMVI; Homo sapiens, five-dose)?
A: The GI50 was 2.4 µM.

Q: And the IC50 (LOX IMVI; Homo sapiens, five-dose)?
A: Its IC50 is 3 µM.

Q: What about the CC50 (LOX IMVI; [1]) of the same compound?
A: Its CC50 is > 100 µM.

Q: And the TGI (LOX IMVI; five-dose)?
A: The TGI was 100.0 µM.

Q: And the activity at 10 µM (SF-539; Homo sapiens, SF-539, 10 μM, SF-539, CNS Cancer, read-out: Growth percentage)?
A: Its activity at 10 µM is 22.1%.

Q: What about the GI50 (SF-539; [2]) of the same compound?
A: Its GI50 is 3.7 µM.

Q: And the IC50 (SF-539; [2])?
A: The IC50 was 15.1 µM.

Q: What about the CC50 (SF-539; Homo sapiens, five-dose, SF-539, read-out: LC50 (the source's name)) of the same compound?
A: The CC50 was > 100 µM.

Q: What about the TGI (SF-539; five-dose, SF-539) of the same compound?
A: Its TGI is 61.7 µM.

Q: What about the activity at 10 µM (SNB-75; Homo sapiens, 10 μM, SNB-75, CNS Cancer, read-out: Growth percentage) of the same compound?
A: The activity at 10 µM was 102%.

Q: And the GI50 (SNB-75; [3])?
A: The GI50 was 28.8 µM.

Q: And the IC50 (SNB-75; [3])?
A: The IC50 was > 100 µM.

Q: What about the CC50 (SNB-75; Homo sapiens, five-dose, SNB-75, read-out: LC50 (the source's name)) of the same compound?
A: Its CC50 is > 100 µM.

Q: What about the TGI (SNB-75; five-dose, SNB-75) of the same compound?
A: The TGI was 77.6 µM.

Q: And the activity at 10 µM (SF-268; Homo sapiens, 10 μM, SF-268, CNS Cancer, read-out: Growth percentage)?
A: Its activity at 10 µM is 76.1%.

Q: What about the GI50 (SF-268; [4]) of the same compound?
A: The GI50 was 22.4 µM.

Q: What about the IC50 (SF-268; [4]) of the same compound?
A: Its IC50 is 53.7 µM.

Q: And the CC50 (SF-268; Homo sapiens, five-dose, SF-268, read-out: LC50 (the source's name))?
A: Its CC50 is > 100 µM.

Q: And the TGI (SF-268; five-dose, SF-268)?
A: Its TGI is 93.3 µM.

Q: What about the activity at 10 µM (HS 578T; Homo sapiens, 10 μM, Breast Cancer, read-out: Growth percentage) of the same compound?
A: Its activity at 10 µM is 61.5%.

Q: What about the GI50 (HS 578T; Homo sapiens, five-dose) of the same compound?
A: The GI50 was 18.6 µM.

Q: What about the IC50 (HS 578T; Homo sapiens, five-dose) of the same compound?
A: The IC50 was 70.8 µM.

Q: And the CC50 (HS 578T; [1])?
A: Its CC50 is > 100 µM.

Q: And the TGI (HS 578T; five-dose)?
A: Its TGI is 75.9 µM.

Q: And the GI50 (OVCAR-5; Homo sapiens)?
A: Its GI50 is > 100 µM.

Q: And the IC50 (OVCAR-5; Homo sapiens)?
A: Its IC50 is > 100 µM.

Q: What about the CC50 (OVCAR-5; Homo sapiens, read-out: LC50 (the source's name)) of the same compound?
A: Its CC50 is > 100 µM.

Q: And the TGI (OVCAR-5)?
A: The TGI was 100.0 µM.

Q: What about the activity at 10 µM (COLO 205; Homo sapiens, 10 μM, COLO 205, Colon Cancer, read-out: Growth percentage) of the same compound?
A: The activity at 10 µM was 114%.

Q: What about the GI50 (COLO 205; [5]) of the same compound?
A: Its GI50 is 4.3 µM.

Q: And the IC50 (COLO 205; [5])?
A: The IC50 was 6.2 µM.

Q: What about the CC50 (COLO 205; Homo sapiens, five-dose, COLO 205, read-out: LC50 (the source's name)) of the same compound?
A: The CC50 was > 100 µM.

Q: And the TGI (COLO 205; five-dose, COLO 205)?
A: Its TGI is 100.0 µM.

Q: And the activity at 10 µM (HCC-2998; Homo sapiens, 10 μM, HCC-2998, Colon Cancer, read-out: Growth percentage)?
A: Its activity at 10 µM is 25.6%.

Q: What about the GI50 (HCC-2998; [6]) of the same compound?
A: The GI50 was 1.2 µM.

Q: What about the IC50 (HCC-2998; [6]) of the same compound?
A: The IC50 was 2.2 µM.

Q: What about the TGI (HCC-2998; five-dose, HCC-2998) of the same compound?
A: Its TGI is 2.9 µM.

Q: And the GI50 (MDA-MB-435; Homo sapiens)?
A: The GI50 was 3.5 µM.

Q: And the IC50 (MDA-MB-435; Homo sapiens)?
A: Its IC50 is 7.4 µM.

Q: What about the CC50 (MDA-MB-435; [1]) of the same compound?
A: The CC50 was > 100 µM.

Q: What about the TGI (MDA-MB-435; five-dose) of the same compound?
A: Its TGI is 52.5 µM.

Q: What about the activity at 10 µM (OVCAR-4; Homo sapiens, 10 μM, OVCAR-4, Ovarian Cancer, read-out: Growth percentage) of the same compound?
A: The activity at 10 µM was 106%.

Q: What about the GI50 (OVCAR-4; [7]) of the same compound?
A: Its GI50 is > 100 µM.

Q: What about the IC50 (OVCAR-4; [7]) of the same compound?
A: The IC50 was > 100 µM.

Q: And the CC50 (OVCAR-4; Homo sapiens, five-dose, OVCAR-4, read-out: LC50 (the source's name))?
A: Its CC50 is > 100 µM.

Q: And the TGI (OVCAR-4; five-dose, OVCAR-4)?
A: The TGI was 100.0 µM.

Q: What about the activity at 10 µM (NCI-H522; Homo sapiens, 10 μM, NCI-H522, Non-Small-Cell Lung Cancer, read-out: Growth percentage) of the same compound?
A: Its activity at 10 µM is 98.5%.

Q: What about the GI50 (NCI-H522; [8]) of the same compound?
A: The GI50 was > 100 µM.

Q: And the IC50 (NCI-H522; [8])?
A: Its IC50 is > 100 µM.

Q: What about the LC50 (concentration killing 50% of cells) (NCI-H522; [8]) of the same compound?
A: The LC50 (concentration killing 50% of cells) was > 100 µM.

Q: And the TGI (NCI-H522; five-dose, NCI-H522)?
A: The TGI was 100.0 µM.

Q: What about the activity at 10 µM (OVCAR-3; Homo sapiens, 10 μM, OVCAR-3, Ovarian Cancer, read-out: Growth percentage) of the same compound?
A: The activity at 10 µM was 13.9%.

Q: What about the GI50 (OVCAR-3; [9]) of the same compound?
A: The GI50 was 22.9 µM.

Q: What about the IC50 (OVCAR-3; [9]) of the same compound?
A: Its IC50 is 41.7 µM.

Q: And the CC50 (OVCAR-3; Homo sapiens, five-dose, OVCAR-3, read-out: LC50 (the source's name))?
A: The CC50 was > 100 µM.

Q: And the TGI (OVCAR-3; five-dose, OVCAR-3)?
A: Its TGI is 52.5 µM.

Q: What about the GI50 (KM12; Homo sapiens) of the same compound?
A: Its GI50 is 0.9 µM.

Q: And the IC50 (KM12; Homo sapiens)?
A: Its IC50 is 1.3 µM.

Q: And the LC50 (KM12; Homo sapiens)?
A: Its LC50 is 9.3 µM.

Q: What about the TGI (KM12) of the same compound?
A: The TGI was 3.0 µM.

Q: What about the activity at 10 µM (SF-295; Homo sapiens, 10 μM, SF-295, CNS Cancer, read-out: Growth percentage) of the same compound?
A: Its activity at 10 µM is 93.3%.

Q: And the GI50 (SF-295; [10])?
A: The GI50 was > 100 µM.

Q: What about the IC50 (SF-295; [10]) of the same compound?
A: The IC50 was > 100 µM.

Q: And the CC50 (SF-295; Homo sapiens, five-dose, SF-295, read-out: LC50 (the source's name))?
A: Its CC50 is > 100 µM.

Q: What about the TGI (SF-295; five-dose, SF-295) of the same compound?
A: Its TGI is 100.0 µM.

Q: And the activity at 10 µM (CCRF-CEM; Homo sapiens, 10 μM, Leukemia, read-out: Growth percentage)?
A: Its activity at 10 µM is 49.7%.

Q: And the GI50 (CCRF-CEM; Homo sapiens, five-dose)?
A: Its GI50 is 6.9 µM.

Q: And the IC50 (CCRF-CEM; Homo sapiens, five-dose)?
A: Its IC50 is 11.7 µM.

Q: And the CC50 (CCRF-CEM; [1])?
A: Its CC50 is > 100 µM.

Q: What about the TGI (CCRF-CEM; five-dose) of the same compound?
A: Its TGI is 31.6 µM.
